Experimental data reported in PMC3986359, “New Cholinesterase Inhibitory Constituents from Lonicera quinquelocularis” (PLoS ONE, 2014).
Like-named read-outs stand apart in the source and are kept apart here.

Legend:
[1] = target: T1, butyrylcholinesterase (horse-serum E.C 3.1.1.8) (Equus caballus, UniProt P81908); experiment: biochemical; assay type: biochemical; details: for BChE inhibition profile (in words): qualitative statement
T1 construct: butyrylcholinesterase (horse-serum E.C 3.1.1.8); purchased Sigma, Pakistan; host or cells: horse serum
T1 sequence (P81908 whole entry): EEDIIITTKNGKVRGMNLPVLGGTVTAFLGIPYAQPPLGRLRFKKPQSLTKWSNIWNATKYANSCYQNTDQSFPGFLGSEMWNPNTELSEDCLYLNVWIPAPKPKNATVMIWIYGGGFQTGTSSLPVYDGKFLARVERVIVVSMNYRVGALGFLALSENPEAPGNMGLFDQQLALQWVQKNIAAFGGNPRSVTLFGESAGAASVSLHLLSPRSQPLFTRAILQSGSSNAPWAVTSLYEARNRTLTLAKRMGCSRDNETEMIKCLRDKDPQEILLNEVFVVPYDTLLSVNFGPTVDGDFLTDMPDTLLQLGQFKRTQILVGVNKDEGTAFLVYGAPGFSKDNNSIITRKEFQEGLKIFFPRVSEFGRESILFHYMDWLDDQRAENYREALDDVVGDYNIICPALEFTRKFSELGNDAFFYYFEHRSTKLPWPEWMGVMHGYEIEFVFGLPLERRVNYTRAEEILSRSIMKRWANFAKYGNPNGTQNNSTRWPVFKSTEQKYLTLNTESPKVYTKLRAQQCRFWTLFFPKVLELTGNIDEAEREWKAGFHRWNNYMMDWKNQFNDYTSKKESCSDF
Experimental: (§1) All other chemicals were of analytical grade and were used as such without further purification. Acetylcholinesterase (AChE) and butyrylcholinesterase (BChE) inhibiting activities were measured according to a modified spectrophotometric method used by Ellman et al.. Protocol and assay conditions were the same as described by Rocha et al..
(§2) The Acetylthiocholine iodide and butyrylthiocholine chloride were used as substrates for investigation of acetylcholinesterase and butyrylcholinesterase assays, respectively. The 5,5′-Dithiobis[2-nitrobenzoic-acid] (DTNB) was used for the measurement of cholinesterase activity. The 0.2 mM DTNB in 62 mM sodium phosphate buffer (pH 8.0, 880 µL), test compound solution (40 µL) and acetylcholinesterase or butyrylcholinesterase solution (40 µL) were mixed and incubated for 15 minutes (25°C). The reaction was then initiated by the addition of acetylthiocholine or butyrylthiocholine (40 µL), respectively. […] All the reactions were performed in triplicate using a BMS spectrophotometer (USA). […] The final concentration of DMSO in the reaction mixture was maintained at 6%.

[2] = target: T2, Acetylcholinesterase (EC 3.1.1.7) (Homo sapiens, UniProt P22303); experiment: biochemical; assay type: biochemical; details: for AChE inhibition profile (in words): qualitative statement; for IC50: read-out: AChE ± SEM (IC50)
T2 construct: purchased Sigma, Pakistan
T2 sequence (P22303 32-614): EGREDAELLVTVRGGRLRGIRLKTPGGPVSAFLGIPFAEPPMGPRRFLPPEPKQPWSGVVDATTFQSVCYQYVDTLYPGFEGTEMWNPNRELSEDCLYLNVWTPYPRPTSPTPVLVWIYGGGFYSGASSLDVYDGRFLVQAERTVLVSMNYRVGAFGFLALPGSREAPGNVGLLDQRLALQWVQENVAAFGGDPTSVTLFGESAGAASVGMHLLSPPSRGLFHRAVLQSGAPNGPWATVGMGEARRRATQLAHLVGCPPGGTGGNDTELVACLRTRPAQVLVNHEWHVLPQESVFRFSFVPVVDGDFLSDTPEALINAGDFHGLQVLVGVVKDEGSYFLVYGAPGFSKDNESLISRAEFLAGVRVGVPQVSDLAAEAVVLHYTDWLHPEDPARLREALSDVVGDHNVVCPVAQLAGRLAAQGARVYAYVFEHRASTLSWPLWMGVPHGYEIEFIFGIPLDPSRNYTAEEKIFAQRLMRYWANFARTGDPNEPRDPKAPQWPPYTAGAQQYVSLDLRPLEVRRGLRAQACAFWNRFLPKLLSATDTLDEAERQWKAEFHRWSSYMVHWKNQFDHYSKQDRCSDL
Experimental: as §1, §2

[3] = acetylthiocholine iodide substrate, DTNB, pH 8.0, 25°C, 412 nm, value ± SEM
[4] = butyrylthiocholine chloride substrate, DTNB, pH 8.0, 25°C, 412 nm, value ± SEM, read-out: BChE ± SEM (IC50)

SMILES | BChE ± SEM (IC50) ([1]; butyrylthiocholine chloride substrate, DTNB, pH 8.0, 25°C, 412 nm, value ± SEM) | BChE inhibition profile (in words) [1] | AChE ± SEM (IC50) [2, 3] | AChE inhibition profile (in words) [2] | IC50 [1] [µM] | IC50 [2, 3] [µM] | IC50 [1, 4] [µM]
CCCCC(CC)COC(=O)c1ccccc1C(=O)OCC(CC)CCCC (stereo not shown) [Compound 1, bis (2-ethylhexyl phthalate] | Nil | inactive | Nil | inactive | – | – | –
CCCCCCCCOC(=O)c1ccccc1C(=O)OCCCCCCCC [Compound 2, dioctyl phthalate] | – | weak inhibition profile | – | weak inhibition profile | 20.12 ± 0.079 | 8.74 ± 0.07 | –
CCC(CCC(C)CCOC(C)=O)COC(=O)c1ccccc1C(=O)OCC(CC)CCC(C)CCOC(C)=O (stereo not shown) [Compound 3, Bis (7-acetoxy-2-ethyl-5-methylheptyl) phthalate] | – | – | – | – | – | 1.65 ± 0.03 | 5.98 ± 0.079
CCOc1c(CC=C(C)C)cc(C(=O)OCC(C)(C)C)cc1CC=C(C)C [Compound 4, Neopentyl-4-ethoxy-3,5-bis [3-methyl-2-butenyl] benzoate] | – | weak inhibition profile | – | weak inhibition profile | – | 5.27 ± 0.04 | 14.76 ± 0.087
CC(C)=CCc1cc(C(=O)OCC(C)(C)C)cc(CC=C(C)C)c1O [Compound 5, Neopentyl-4-hydroxy-3,5-bis [3-methyl-2-butenyl] benzoate] | – | – | – | – | – | 3.43 ± 0.02 | 9.84 ± 0.037
